{
  "source": "patent US20260193245A1",
  "about": "“CD93 INHIBITORS” (UNIVERSITÄT BERN, priority 2022, published 2026)",
  "key": {"CD93": {"target": "T1, CD93 (Mus musculus, UniProt O89103)", "T1 construct": "endogenous in cells; host or cells: FACS-purified GFP+ lin- Sca-1- c-kit(high) CD34+ Fcγ+ GMPs from MLL-AF9 AML mice (BL6; CD93-/- cells as control)", "T1 sequence (O89103 23-644)": "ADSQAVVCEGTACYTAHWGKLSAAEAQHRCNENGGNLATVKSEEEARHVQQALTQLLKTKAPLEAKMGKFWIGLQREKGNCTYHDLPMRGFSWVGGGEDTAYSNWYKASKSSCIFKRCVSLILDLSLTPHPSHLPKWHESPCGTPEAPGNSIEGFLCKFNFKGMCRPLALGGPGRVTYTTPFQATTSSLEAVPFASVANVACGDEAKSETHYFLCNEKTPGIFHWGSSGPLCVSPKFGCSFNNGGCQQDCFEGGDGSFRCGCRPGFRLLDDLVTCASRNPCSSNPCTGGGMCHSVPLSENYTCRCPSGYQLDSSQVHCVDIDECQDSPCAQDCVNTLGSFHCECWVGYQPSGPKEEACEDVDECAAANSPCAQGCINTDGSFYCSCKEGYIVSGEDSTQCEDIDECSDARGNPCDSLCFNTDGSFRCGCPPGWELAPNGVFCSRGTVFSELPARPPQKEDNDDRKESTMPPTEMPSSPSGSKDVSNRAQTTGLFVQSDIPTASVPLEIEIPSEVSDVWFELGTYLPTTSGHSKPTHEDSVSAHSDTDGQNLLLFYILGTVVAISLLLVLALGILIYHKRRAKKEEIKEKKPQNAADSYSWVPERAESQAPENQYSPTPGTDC", "experiment": "Mouse MLL-AF9 compound screening: colony forming capacity of BL6 or CD93-/- GMPs (leukemia stem cells) from AML mice", "assay_type": "cell-based", "conditions": "GMPs from AML mice cultured overnight with 10 uM and 1 uM compound; colonies counted after 7 days; FIG. 1 and FIG. 2", "method": "The colony formation (% of control) is shown on the Y-axis. […] Compounds showing inhibition of CD93, show no or a very low difference in colony formation of CD93−/− and at the same time a low percentage of colony formation of BL6.\nFor testing the small molecule compounds targeting CD93 on GMPs (leukemia stem cells) colony forming capacity, 10^3 FACS-purified GFP+lin-Sca-1-c-kithighCD34+Fcγ+ GMPs from BL6 or CD93−/− transduced AML mice were cultured overnight in 96-well U-bottom plates (NeoLab) in RPMI medium supplemented with 10% FCS, 1% L-glutamine, 1% penicillin/streptomycin, 100 ng/ml recombinant mouse (rm)-SCF (Miltenyi) and 20 ng/ml rm-TPO (ProSpec), in the presence or absence of 10 uM and 1 uM compound in technical triplicates. Compounds were dissolved in DMSO. The next day, cells were plated in semi-solid methylcellulose in the absence of any compound. Number of colonies was assessed by inverted light microscopy after 7 days.\nIn this assay, the semi-solid Media used was 1.27% Methylcellulose (1500cp, Sigma), supplemented with 15% FCS, 20% BIT (50 mg/ml BSA in IMDM, 1.44 U/ml rh-insulin [Actrapid; Novo Nordisk], and 250 ng/ml human holo transferrin [Prospec]), 100 μM 2-mercaptoethanol, 100 U/ml penicillin, 100 μg/ml streptomycin, 2 mM L-glutamine, and 50 ng/ml rm-SCF (Miltneyi), 10 ng/ml rm-IL-3 (Miltenyi), 10 ng/ml rm-IL-6 (Miltenyi), and 50 ng/ml rm-Flt3-ligand (ProSpec)."}, "BL6 leukemia stem cells": {"tested_on": "BL6 leukemia stem cells", "conditions": "murine CML model, BL6 and CD93-/- mice; Riether et al. 2021; cited from earlier work"}, "[1]": {"tested_on": "human CML leukemia stem cells", "conditions": "Riether et al. 2021; cited from earlier work"}},
  "data": [
    {"compound": "O=C(c1nc2ccccc2s1)N1CCCN(C2CC2)CC1", "note": "[Compound 22393]", "values": [
      {"measurement": "inhibition profile of CD93 (colony formation, % of control, BL6 vs CD93-/- GMPs)", "setting": "CD93", "value": "good inhibition profiles of CD93"}
    ]},
    {"compound": "O=C(c1csc(-c2ccccc2)n1)N1CCCN(C2CC2)CC1", "note": "[Compound 21560]", "values": [
      {"measurement": "inhibition profile of CD93 (colony formation, % of control, BL6 vs CD93-/- GMPs)", "setting": "CD93", "value": "good inhibition profiles of CD93"}
    ]},
    {"compound": "O=C(c1csc(-c2ccccc2)n1)N1CCN2CCC1C2", "note": "(centres unmarked) [Compound 22817]", "values": [
      {"measurement": "inhibition profile of CD93 (colony formation, % of control, BL6 vs CD93-/- GMPs)", "setting": "CD93", "value": "good inhibition profiles of CD93"}
    ]},
    {"compound": "O=C(c1ccn(-c2ccccc2)n1)N1CCCN(C2CC2)CC1", "note": "[Compound 22742]", "values": [
      {"measurement": "inhibition profile of CD93 (colony formation, % of control, BL6 vs CD93-/- GMPs)", "setting": "CD93", "value": "good inhibition profiles of CD93"}
    ]},
    {"compound": "CN(C)CCN(C)C(=O)c1csc(-c2ccccc2)n1", "note": "[Compound 22815]", "values": [
      {"measurement": "inhibition profile of CD93 (colony formation, % of control, BL6 vs CD93-/- GMPs)", "setting": "CD93", "value": "good inhibition profiles of CD93"}
    ]},
    {"compound": "COc1ccccc1-c1nc(C(=O)N2CCCN(C3CC3)CC2)cs1", "note": "[Compound 22394]", "values": [
      {"measurement": "inhibition profile of CD93 (colony formation, % of control, BL6 vs CD93-/- GMPs)", "setting": "CD93", "value": "good inhibition profiles of CD93"}
    ]},
    {"compound": "CCN(CC)CCNC(=O)c1cc(Cl)c(N)cc1OC", "note": "[metoclopramide]", "values": [
      {"measurement": "colony formation of BL6 leukemia stem cells", "setting": "BL6 leukemia stem cells", "value": "reduced colony formation of BL6 leukemia stem cells"},
      {"measurement": "leukemia stem cell numbers and function", "setting": "[1]", "value": "diminished leukemia stem cell numbers and function"}
    ]}
  ]
}
